Test system: Staphylococcus aureus ATCC 29213
Test: MIC of the antibiotic against the strain to be tested by E-test
Format: cell-based
Conditions: ATCC29213, cefuroxime E-test strip, overnight culturing, CLSI standard operation
Method: Test of the MIC of the antibiotic against the strain to be tested: The strain ATCC 29213 for test is incubated onto a culture medium plate, and a bacterial colony grows after 18 to 24 h for future use. Normal saline (a phosphate buffer solution, or the like) is prepared and is then separately put into turbidimeter tubes, each of which has a capacity of 9 mL, and sterilization treatment is carried out (at 121° C. for 15 to 30 min). A particular number of bacteria are added into the turbidimeter tubes to make bacterial suspensions, and the MacFarland turbidity is adjusted to 0.5 to 1 McFarland. According to a CLSI standard operation and use guidelines of E-test, a swab is dipped into each bacterial suspension, and is applied to a culture medium. After the swab is dried for 15 to 20 min, a cefuroxime E-test strip is applied to a surface of a bacterial moss for overnight culturing. A scale at an intersection of an edge of an inhibition zone and the strip is read. The scale is an MIC value of ATCC 29213 against the cefuroxime, which is 2 ug/mL.

- MIC: 2 µg/mL
Structure (SMILES): CO/N=C(\C(=O)N[C@@H]1C(=O)N2C(C(=O)O)=C(COC(N)=O)CS[C@H]12)c1ccco1 [cefuroxime]
